Read-outs that look alike come from different tables or passages of the source.
How the values were obtained:
MetNI [1] = target: T1, MetNI (Escherichia coli, UniProt P30750); assay: ATPase inhibition, EnzChek phosphate assay; format: biochemical
T1 construct: gene metN; DDM-solubilized full MetNI transporter (MetN2MetI2), His-tag purified, prepared as previously described; with D-methionine transport system permease protein MetI
Excerpt: ATPase inhibition, EnzChek phosphate assay on MetNI | we measured the inhibitory constants (Ki) for both L- and D-Met

MetNI [2] = target: T2, MetNI (Escherichia coli, UniProt P30750, N295A); assay: ATPase inhibition, EnzChek phosphate assay; format: biochemical
T2 construct: gene metN; DDM-solubilized full MetNI transporter (MetN2MetI2), His-tag purified, prepared as previously described; with D-methionine transport system permease protein MetI
T2 sequence (P30750 whole entry N295A, one chain of several): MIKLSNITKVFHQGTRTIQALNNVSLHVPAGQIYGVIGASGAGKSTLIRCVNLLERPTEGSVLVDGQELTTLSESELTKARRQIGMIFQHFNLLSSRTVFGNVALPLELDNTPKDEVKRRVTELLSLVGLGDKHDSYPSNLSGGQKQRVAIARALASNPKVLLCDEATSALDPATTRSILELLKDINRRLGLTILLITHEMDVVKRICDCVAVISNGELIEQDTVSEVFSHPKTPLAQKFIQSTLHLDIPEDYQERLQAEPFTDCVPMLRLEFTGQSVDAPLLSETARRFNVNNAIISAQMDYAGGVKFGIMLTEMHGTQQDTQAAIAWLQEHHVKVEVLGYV

MetNI-Q = target: T3, MetNI-Q (Escherichia coli, UniProt P28635+P31547); assay: proteoliposome uptake of 3H-methionine; format: biochemical; conditions: 50 μM L-Met, 50 μM WT MetQ, ATP-regenerating system in lumen, 5 mM MgCl2, pH 7.5, 37 °C; labelled compound
T3 construct: gene metQ
T3 sequence (P28635 23-271): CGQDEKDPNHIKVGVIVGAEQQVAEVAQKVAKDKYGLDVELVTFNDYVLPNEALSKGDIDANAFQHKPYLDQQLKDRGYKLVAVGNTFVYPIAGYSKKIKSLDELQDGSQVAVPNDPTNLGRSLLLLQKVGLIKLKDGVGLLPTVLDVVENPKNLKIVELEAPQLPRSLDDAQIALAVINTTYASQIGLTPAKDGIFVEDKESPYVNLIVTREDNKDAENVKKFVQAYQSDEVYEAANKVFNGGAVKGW
T3 sequence (P31547 1-217): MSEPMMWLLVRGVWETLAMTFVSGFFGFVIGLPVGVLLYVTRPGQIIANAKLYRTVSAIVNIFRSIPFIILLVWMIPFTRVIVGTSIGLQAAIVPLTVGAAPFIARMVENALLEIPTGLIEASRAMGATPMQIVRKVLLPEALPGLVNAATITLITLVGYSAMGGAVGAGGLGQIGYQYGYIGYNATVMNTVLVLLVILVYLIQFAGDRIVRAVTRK
T3 sequence (P30750 1-343 partner): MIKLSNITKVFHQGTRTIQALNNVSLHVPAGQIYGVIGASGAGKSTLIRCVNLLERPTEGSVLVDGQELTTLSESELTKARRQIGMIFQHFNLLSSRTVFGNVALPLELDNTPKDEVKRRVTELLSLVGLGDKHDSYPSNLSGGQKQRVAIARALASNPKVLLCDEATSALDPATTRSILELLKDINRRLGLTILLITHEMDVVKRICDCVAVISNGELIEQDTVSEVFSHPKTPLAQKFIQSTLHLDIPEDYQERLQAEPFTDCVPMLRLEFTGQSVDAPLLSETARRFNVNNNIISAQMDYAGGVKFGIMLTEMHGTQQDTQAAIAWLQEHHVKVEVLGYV

MetQ [3] = target: T4, MetQ (Escherichia coli, UniProt P28635, N229A); assay: isothermal titration calorimetry; format: binding
T4 construct: secreted, non-lipidated periplasmic MetQ, C-terminal 6xHis, from E. coli BL21(DE3) Gold
T4 sequence (P28635 23-271 N229A): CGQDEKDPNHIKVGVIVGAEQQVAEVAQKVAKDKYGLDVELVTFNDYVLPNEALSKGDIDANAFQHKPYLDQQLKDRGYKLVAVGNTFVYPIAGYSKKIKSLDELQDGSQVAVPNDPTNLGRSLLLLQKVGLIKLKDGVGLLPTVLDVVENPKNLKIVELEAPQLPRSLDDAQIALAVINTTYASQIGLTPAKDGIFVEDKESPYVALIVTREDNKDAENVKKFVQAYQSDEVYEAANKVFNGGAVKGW

MetQ [4] = target: T5, MetQ (Escherichia coli, UniProt P28635); assay: isothermal titration calorimetry; format: binding
T5 construct: secreted, non-lipidated periplasmic MetQ, C-terminal 6xHis, from E. coli BL21(DE3) Gold
T5 sequence (P28635 23-271): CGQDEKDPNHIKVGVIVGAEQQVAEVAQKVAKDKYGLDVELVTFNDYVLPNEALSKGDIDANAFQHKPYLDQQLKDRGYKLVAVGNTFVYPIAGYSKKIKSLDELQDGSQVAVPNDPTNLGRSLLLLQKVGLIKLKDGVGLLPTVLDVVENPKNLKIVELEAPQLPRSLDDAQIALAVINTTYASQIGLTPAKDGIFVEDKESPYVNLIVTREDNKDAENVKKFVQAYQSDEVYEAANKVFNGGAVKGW

MetQ (Escherichia coli) [5] = target: MetQ (Escherichia coli) (UniProt P28635); conditions: cited from earlier work
MetQ (Escherichia coli) [6] = target: MetQ (Escherichia coli) (UniProt P28635); conditions: cited from earlier work; remark: listed apart in the source

| Molecule | Ki (MetNI [1]) [µM] | Ki (MetNI [2]) [µM] | uptake rate (MetNI-Q) | Kd (MetQ [3]) [µM] | Kd (MetQ [4]) [µM] | Kd (MetQ (Escherichia coli) [5]) [µM] | Kd (MetQ (Escherichia coli) [6]) [µM] |
| --- | --- | --- | --- | --- | --- | --- | --- |
| CSCC[C@H](N)C(=O)O [L-Met] | 120 ± 20 | 3300 ± 300 | L-Met was imported into proteoliposomes | 300 ± 70 | 0.0066 ± 0.0006 | – | – |
| MetNI (from UniProt P30750) | – | – | – | – | – | 1.1 | 0.027 |
| CSCC[C@@H](N)C(=O)O [D-Met] | 5400 ± 100 | 2400 ± 400 | – | 110 ± 30 | 6.6 ± 0.6 | – | – |
